Read-outs that look alike come from different tables or passages of the source.
System: M. mycetomatis genome strain MM55
Assay: CLSI M38-A2 based in vitro susceptibility screening (XTT or resazurin), growth at fixed concentration
Type: cell-based, Madurella mycetomatis
Conditions: Madurella mycetomatis
[1] = 25 uM, replicate A, read-out: Percentage survival at 25um, 25 um A
[2] = mean of three replicates, read-out: Percentage survival at 100um, 100 uM mean
[3] = replicate 1, read-out: Percentage survival at 100um, 100 uM A (first replicate column)
[4] = replicate 2, read-out: Percentage survival at 100um, 100 uM A (second replicate column)
[5] = replicate 3, read-out: Percentage survival at 100um, 100 uM A (third replicate column)
[6] = read-out: Percentage survival at 25um, 25 uM B
[7] = read-out: Percentage survival at 25um, 25 uM C
[8] = read-out: Percentage survival at 25um, 25 uM mean
[9] = 25 uM, replicate B, read-out: Percentage survival at 25um, 25 uM B
[10] = 25 uM, replicate C, read-out: Percentage survival at 25um, 25 uM C
[11] = 25 uM, mean of replicates, read-out: Percentage survival at 25um, 25 uM mean
[12] = mean of replicates, read-out: Percentage survival at 100um, 100 uM mean
[13] = replicate 1, read-out: Percentage survival at 100um, 100 uM A
[14] = replicate 2, read-out: Percentage survival at 100um, 100 uM A
[15] = replicate 3, read-out: Percentage survival at 100um, 100 uM A
[16] = 25 uM, mean of three replicates, read-out: Percentage survival at 25um, 25 uM mean
[17] = first replicate column, read-out: Percentage survival at 100um, 100 uM A
[18] = second replicate column, read-out: Percentage survival at 100um, 100 uM A
[19] = third replicate column, read-out: Percentage survival at 100um, 100 uM A

Row | Structure (SMILES) | activity at 25 µM [1] [%] | activity at 100 µM [2] [%] | activity at 100 µM [3] [%] | activity at 100 µM [5] [%] | activity at 25 µM [9] [%] | activity at 25 µM [10] [%] | activity at 25 µM [16] [%] | Percent fungal survival at 100 µM [4] [%] | also measured
1 | CCN(CC)CCCC(C)Nc1ccnc2cc(Cl)ccc12 (centres unmarked) [MMV000008] | 87.2 | 62.1 | 45.5 | 79.8 |  |  |  |  | activity at 100 µM [4]: 61%; activity at 25 µM [6]: 72.9%; activity at 25 µM [7]: 80.7%; activity at 25 µM [8]: 80.3%
2 | COc1cc(Cc2cnc(N)nc2N)cc(OC)c1OC [MMV000028] |  |  |  |  |  |  |  |  | activity at 25 µM (25 uM, mean of three, M. mycetomatis MM55, read-out: Percentage survival at 25um, 25 uM mean): 83.8%; activity at 25 µM (25 uM, replicate A, M. mycetomatis MM55, read-out: Percentage survival at 25um, 25 um A): 93.1%; activity at 25 µM (25 uM, replicate B, M. mycetomatis MM55, read-out: Percentage survival at 25um, 25 uM B): 86.4%; activity at 25 µM (25 uM, replicate C, M. mycetomatis MM55, read-out: Percentage survival at 25um, 25 uM C): 71.8%; activity at 100 µM (mean of three, M. mycetomatis MM55, read-out: Percentage survival at 100um, 100 uM mean): 77.4%; activity at 100 µM (replicate 1, M. mycetomatis MM55, read-out: Percentage survival at 100um, 100 uM A (first replicate column)): 78.2%; activity at 100 µM (replicate 2, M. mycetomatis MM55, read-out: Percentage survival at 100um, 100 uM A (second replicate column)): 74.4%; activity at 100 µM (replicate 3, M. mycetomatis MM55, read-out: Percentage survival at 100um, 100 uM A (third replicate column)): 79.6%
3 | CONC(=N)c1ccc(-c2ccc(-c3ccc(C(=N)NOC)cc3)o2)cc1 [MMV000059] | 94.2 |  |  |  | 81 | 79.4 |  |  | activity at 25 µM (25 uM, mean, read-out: Percentage survival at 25um, 25 uM mean): 84.9%; activity at 100 µM (mean, read-out: Percentage survival at 100um, 100 uM mean): 95.8%; activity at 100 µM (replicate (first column), read-out: Percentage survival at 100um, 100 uM A): 101%; activity at 100 µM (replicate (second column), read-out: Percentage survival at 100um, 100 uM A): 92%; activity at 100 µM (replicate (third column), read-out: Percentage survival at 100um, 100 uM A): 94.6%
4 | O=C(c1ccccc1)N1CCN(c2ccccc2NC(=O)C(Cl)(Cl)Cl)CC1 [MMV001014] | 69 |  |  |  | 93.3 | 65.7 |  |  | activity at 25 µM [11]: 76%; activity at 100 µM [12]: 78.9%; activity at 100 µM [13]: 98.3%; activity at 100 µM [14]: 71.3%; activity at 100 µM [15]: 67.2%
5 | Cc1c(OCC(F)(F)F)ccnc1C[S+]([O-])c1nc2ccccc2[nH]1 (centres unmarked) [MMV001438] | 79.3 | 55.3 | 41.9 | 71.8 | 123 | 84.8 | 95.7 | 52.1 | 
6 | CCCCc1ccc(C(=O)O)nc1 [MMV001726] | 92.6 | 74.3 |  |  |  |  |  |  | activity at 100 µM [17]: 91.2%; activity at 100 µM [18]: 61.7%; activity at 100 µM [19]: 69.8%; activity at 25 µM [6]: 104%; activity at 25 µM [7]: 77.4%; activity at 25 µM [8]: 91.3%
7 | Nc1nc(O)c2ncn(COC(CO)CO)c2n1 [MMV001761] | 86.2 | 87 |  |  | 64.3 | 58.4 | 69.6 |  | activity at 100 µM [17]: 93.4%; activity at 100 µM [18]: 85.2%; activity at 100 µM [19]: 82.5%
8 | CC1=C(/C=C/C(C)=C/C=C/C(C)=C/C(=O)Nc2ccc(O)cc2)C(C)(C)CCC1 [MMV001793] | 69.1 | 62 | 59 | 68.7 | 68.9 | 66.2 | 68.1 | 58.3 | 
9 | Nc1nc(O)c2ncn(COCCO)c2n1 [MMV001961] | 88.7 | 84.1 |  |  | 94.5 | 87.8 | 90.3 |  | activity at 100 µM [17]: 88.4%; activity at 100 µM [18]: 78.9%; activity at 100 µM [19]: 85%
10 | NNC(=O)c1ccncc1 [MMV002169] | 90.1 | 85.3 | 84.8 | 89.3 | 80.7 | 85.9 | 85.6 | 81.9 | 
11 | O=C(O)CCNC(=O)c1ccccc1 [MMV002224] | 90.2 |  |  |  | 96.2 | 95.4 |  |  | activity at 25 µM [11]: 93.9%; activity at 100 µM [12]: 89.7%; activity at 100 µM [13]: 96%; activity at 100 µM [14]: 83.6%; activity at 100 µM [15]: 89.5%
12 | Cc1onc(-c2ccccc2)c1-c1ccc(S(N)(=O)=O)cc1 [MMV002260] | 85.1 | 99.5 | 101 | 76.9 | 77.3 | 81.8 | 81.4 | 120 | 
13 | Cc1ncc([N+](=O)[O-])n1CC(C)O (centres unmarked) [MMV002287] | 140 | 100 | 89.4 | 90.2 | 90.9 | 103 | 111 | 122 | 

— PMC8815882, “Screening the pandemic response box identified benzimidazole carbamates, Olorofim and ravuconazole as promising drug candidates for the treatment of eumycetoma” (PLoS Neglected Tropical Diseases, 2022)
